In brackets after ≈: the same amount, converted by molar mass. Where a name gives a salt, the structure may show the parent alone. Read-outs that look alike come from different tables or passages of the source.
Assays:
Experiment in all cases: Antibacterial activity, microbroth dilution method (MIC)
[1] = system: super sensitive Gram-negative Escherichia coli (E. coli) BAS849; type: cell-based; details: for MIC: Escherichia coli, read-out: MIC, E. coli BAS849
Source text: (§1) The antibacterial activity from a microbroth dilution method may be presented as the minimum inhibitory concentration (MIC in μg/mL). The MIC value is the lowest concentration of drug which prevents macroscopically visible growth under test conditions.
(§2) Antibacterial activity of test compounds against the super sensitive Gram-negative Escherichia coli (E. coli) BAS849 bacterium, the control Gram-negative E. coli 25922 strain and the Gram-positive Staphylococcus aureus (S. aureus) 29213 bacterium are shown in Table 1.

[2] = system: Gram-positive Staphylococcus aureus (S. aureus) 29213; type: cell-based; details: Gram-positive S. aureus 29213; for MIC: Staphylococcus aureus
Source text: as §1, §2

[3] = system: control Gram-negative E. coli 25922 strain; type: cell-based, Escherichia coli; details: for MIC: Escherichia coli
Source text: as §1, §2

[4] = super sensitive Gram-negative E. coli BAS849, microbroth dilution

Structure (SMILES)	MIC [1, 4] [µg/mL]	MIC [2] [µg/mL]	MIC [3] [µg/mL]	MIC [1] [µg/mL]	MIC, E. coli BAS849 [1, 4]	MIC, S. aureus 29213 [2]	MIC, E. coli 25922 [3]
CCNCc1cc2cc3c(cc2n1C)[C@H](O)[C@H](O)Cc1c-3[nH]c(=O)c(C(=O)O)c1O.Cl (relative stereo) [Cpd 71, (cis)-10-((ethylamino)methyl)-4,6,7-trihydroxy-9-methyl-2-oxo-1,2,5,6,7,9-hexahydropyrido[3′,2′:6,7]cyclohepta[1,2-f]indole-3-carboxylic acid hydrochloride]	12.5 to 150	12.5 to 150	12.5 to 150	–	–	–	–
CN(C)c1ccc2c(c1)CCc1cc(C(=O)O)c(=O)[nH]c1-2 [Cpd 1, 8-(dimethylamino)-2-oxo-1,2,5,6-tetrahydrobenzo[h]quinoline-3-carboxylic acid]	3.5 to 12.5 (≈ 12.3 to 44 µM)	12.5 to 150 (≈ 44 to 528 µM)	12.5 to 150 (≈ 44 to 528 µM)	–	–	–	–
CN(C)c1ccc2c(c1)CCCc1cc(C(=O)O)c(=O)[nH]c1-2 [Cpd 2, 9-(dimethylamino)-2-oxo-2,5,6,7-tetrahydro-1H-benzo[6,7]cyclohepta[1,2-b]pyridine-3-carboxylic acid]	< 1	12.5 to 150 (≈ 41.9 to 503 µM)	12.5 to 150 (≈ 41.9 to 503 µM)	–	–	–	–
CN(C)c1ccc2c(c1)CCCc1c-2[nH]c(=O)c(C(=O)O)c1O [Cpd 3, 9-(dimethylamino)-4-hydroxy-2-oxo-2,5,6,7-tetrahydro-1H-benzo[6,7]cyclohepta[1,2-b]pyridine-3-carboxylic acid]	< 1	3.5 to 12.5 (≈ 11.1 to 39.8 µM)	3.5 to 12.5 (≈ 11.1 to 39.8 µM)	–	–	–	–
CN(C)c1ccc2c(c1)CCCCc1cc(C(=O)O)c(=O)[nH]c1-2 [Cpd 4, 10-(dimethylamino)-2-oxo-1,2,5,6,7,8-hexahydrobenzo[7,8]cycloocta[1,2-b]pyridine-3-carboxylic acid]	< 1	12.5 to 150 (≈ 40 to 480 µM)	12.5 to 150 (≈ 40 to 480 µM)	–	–	–	–
CN(C)c1ccc2c(c1)CCCCc1c-2[nH]c(=O)c(C(=O)O)c1O [Cpd 5, 10-(dimethylamino)-4-hydroxy-2-oxo-1,2,5,6,7,8-hexahydrobenzo[7,8]cycloocta[1,2-b]pyridine-3-carboxylic acid]	< 1	3.5 to 12.5 (≈ 10.7 to 38.1 µM)	12.5 to 150 (≈ 38.1 to 457 µM)	–	–	–	–
CN(C)C1CCN(c2ccc3c(c2)CCCc2c-3[nH]c(=O)c(C(=O)O)c2O)C1.Cl (stereo not drawn) [Cpd 6, 9-(3-(dimethylamino)pyrrolidin-1-yl)-4-hydroxy-2-oxo-2,5,6,7-tetrahydro-1H-benzo[6,7]cyclohepta[1,2-b]pyridine-3-carboxylic acid hydrochloride]	< 1	12.5 to 150	3.5 to 12.5	–	–	–	–
O=C(O)c1c(O)c2c([nH]c1=O)-c1ccc(N3CCCC3)cc1CCC2 [Cpd 7, 4-hydroxy-2-oxo-9-(pyrrolidin-1-yl)-2,5,6,7-tetrahydro-1H-benzo[6,7]cyclohepta[1,2-b]pyridine-3-carboxylic acid]	< 1	3.5 to 12.5 (≈ 10.3 to 36.7 µM)	12.5 to 150 (≈ 36.7 to 441 µM)	–	–	–	–
CNC1CCN(c2ccc3c(c2)CCCc2c-3[nH]c(=O)c(C(=O)O)c2O)C1.Cl (stereo not drawn) [Cpd 8, 4-hydroxy-9-(3-(methylamino)pyrrolidin-1-yl)-2-oxo-2,5,6,7-tetrahydro-1H-benzo[6,7]cyclohepta[1,2-b]pyridine-3-carboxylic acid hydrochloride]	1 to 3.5	12.5 to 150	3.5 to 12.5	–	–	–	–
N[C@@H]1[C@H]2CN(c3ccc4c(c3)CCCc3c-4[nH]c(=O)c(C(=O)O)c3O)C[C@@H]12 [Cpd 9, 9-((cis,cis)-6-amino-3-azabicyclo[3.1.0]hexan-3-yl)-4-hydroxy-2-oxo-2,5,6,7-tetrahydro-1H-benzo[6,7]cyclohepta[1,2-b]pyridine-3-carboxylic acid trifluoroacetate]	–	3.5 to 12.5	< 1	< 1	–	–	–
CN(Cc1ccccc1)[C@H]1[C@@H]2CN(c3ccc4c(c3)CCCc3c-4[nH]c(=O)c(C(=O)O)c3O)C[C@@H]21 [Cpd 10, 9-((cis,cis)-6-(benzyl(methyl)amino)-3-azabicyclo[3.1.0]hexan-3-yl)-4-hydroxy-2-oxo-2,5,6,7-tetrahydro-1H-benzo[6,7]cyclohepta[1,2-b]pyridine-3-carboxylic acid hydrochloride]	3.5 to 12.5	1 to 3.5	12.5 to 150	–	–	–	–
CN[C@H]1[C@@H]2CN(c3ccc4c(c3)CCCc3c-4[nH]c(=O)c(C(=O)O)c3O)C[C@@H]21 [Cpd 11, 4-hydroxy-9-((cis,cis)-6-(methylamino)-3-azabicyclo[3.1.0]hexan-3-yl)-2-oxo-2,5,6,7-tetrahydro-1H-benzo[6,7]cyclohepta[1,2-b]pyridine-3-carboxylic acid hydrochloride]	< 1	3.5 to 12.5	1 to 3.5	–	–	–	–
CC1CCc2cc(N3CCC(N(C)C)C3)ccc2-c2[nH]c(=O)c(C(=O)O)c(O)c21.Cl (stereo not drawn) [Cpd 12, 9-(3-(dimethylamino)pyrrolidin-1-yl)-4-hydroxy-5-methyl-2-oxo-2,5,6,7-tetrahydro-1H-benzo[6,7]cyclohepta[1,2-b]pyridine-3-carboxylic acid hydrochloride]	1 to 3.5	12.5 to 150	12.5 to 150	–	–	–	–
CC1CCc2cc(N3C[C@@H]4[C@@H](N)[C@@H]4C3)ccc2-c2[nH]c(=O)c(C(=O)O)c(O)c21 (stereo partly drawn) [Cpd 13, 9-((cis,cis)-6-amino-3-azabicyclo[3.1.0]hexan-3-yl)-4-hydroxy-5-methyl-2-oxo-2,5,6,7-tetrahydro-1H-benzo[6,7]cyclohepta[1,2-b]pyridine-3-carboxylic acid hydrochloride]	< 1	3.5 to 12.5	1 to 3.5	–	–	–	–
NC1C2CN(c3ccc4c(c3)C(O)CCc3c-4[nH]c(=O)c(C(=O)O)c3O)CC12.O=C(O)C(F)(F)F (stereo not drawn) [Cpd 14, 9-((cis,cis)-6-amino-3-azabicyclo[3.1.0]hexan-3-yl)-4,7-dihydroxy-2-oxo-2,5,6,7-tetrahydro-1H-benzo[6,7]cyclohepta[1,2-b]pyridine-3-carboxylic acid trifluoroacetate salt]	–	–	–	–	* (an MIC value between >12.5 μg/mL and ≦150 μg/mL)	* (an MIC value between >12.5 μg/mL and ≦150 μg/mL)	* (an MIC value between >12.5 μg/mL and ≦150 μg/mL)
CN(C)C1CCN(c2ccc3c(c2)C(O)CCc2c-3[nH]c(=O)c(C(=O)O)c2O)C1.Cl (stereo not drawn) [Cpd 15, 9-(3-(dimethylamino)pyrrolidin-1-yl)-4,7-dihydroxy-2-oxo-2,5,6,7-tetrahydro-1H-benzo[6,7]cyclohepta[1,2-b]pyridine-3-carboxylic acid hydrochloride]	12.5 to 150	12.5 to 150	12.5 to 150	–	–	–	–
Cn1ccc2cc3c(cc21)C=CCc1c-3[nH]c(=O)c(C(=O)O)c1O [Cpd 16, 4-hydroxy-9-methyl-2-oxo-1,2,5,9-tetrahydropyrido[3′,2′:6,7]cyclohepta[1,2-f]indole-3-carboxylic acid]	< 1	1 to 3.5 (≈ 3.1 to 10.9 µM)	1 to 3.5 (≈ 3.1 to 10.9 µM)	–	–	–	–
Cn1ccc2cc3c(cc21)CCCc1c-3[nH]c(=O)c(C(=O)O)c1O [Cpd 17, 4-hydroxy-9-methyl-2-oxo-1,2,5,6,7,9-hexahydropyrido[3′,2′:6,7]cyclohepta[1,2-f]indole-3-carboxylic acid]	< 1	1 to 3.5 (≈ 3.08 to 10.8 µM)	1 to 3.5 (≈ 3.08 to 10.8 µM)	–	–	–	–
Cn1ccc2cc3c(c(F)c21)CCCc1c-3[nH]c(=O)c(C(=O)O)c1O [Cpd 18, 8-fluoro-4-hydroxy-9-methyl-2-oxo-1,2,5,6,7,9-hexahydropyrido[3′,2′:6,7]cyclohepta[1,2-f]indole-3-carboxylic acid]	< 1	1 to 3.5 (≈ 2.92 to 10.2 µM)	3.5 to 12.5 (≈ 10.2 to 36.5 µM)	–	–	–	–
CCNCc1cc2cc3c(cc2n1C)Cc1c-3[nH]c(=O)c(C(=O)O)c1O.Cl [Cpd 19, 2-((ethylamino)methyl)-8-hydroxy-1-methyl-6-oxo-1,5,6,9-tetrahydropyrido[3′,2′:4,5]cyclopenta[1,2-f]indole-7-carboxylic acid hydrochloride]	12.5 to 150	12.5 to 150	12.5 to 150	–	–	–	–
CNCc1cc2cc3c(cc2n1C)CCc1c-3[nH]c(=O)c(C(=O)O)c1O.Cl [Cpd 20, 4-hydroxy-8-methyl-9-((methylamino)methyl)-2-oxo-2,5,6,8-tetrahydro-1H-indolo[6,5-h]quinoline-3-carboxylic acid hydrochloride]	1 to 3.5	12.5 to 150	3.5 to 12.5	–	–	–	–
Cl.Cn1c(CN2CCC2)cc2cc3c(cc21)CCc1c-3[nH]c(=O)c(C(=O)O)c1O [Cpd 21, 9-(azetidin-1-ylmethyl)-4-hydroxy-8-methyl-2-oxo-2,5,6,8-tetrahydro-1H-indolo[6,5-h]quinoline-3-carboxylic acid hydrochloride]	1 to 3.5	12.5 to 150	3.5 to 12.5	–	–	–	–
CNCc1cc2cc3c(cc2n1C)CCCc1c-3[nH]c(=O)c(C(=O)O)c1O.Cl [Cpd 22, 4-hydroxy-9-methyl-10-((methylamino)methyl)-2-oxo-1,2,5,6,7,9-hexahydropyrido[3′,2′:6,7]cyclohepta[1,2-f]indole-3-carboxylic acid hydrochloride]	< 1	3.5 to 12.5	< 1	–	–	–	–
Cl.Cn1c(CNC2CCC2)cc2cc3c(cc21)CCCc1c-3[nH]c(=O)c(C(=O)O)c1O [Cpd 23, 10-((cyclobutylamino)methyl)-4-hydroxy-9-methyl-2-oxo-1,2,5,6,7,9-hexahydropyrido[3′,2′:6,7]cyclohepta[1,2-f]indole-3-carboxylic acid hydrochloride]	< 1	3.5 to 12.5	< 1	–	–	–	–
Cl.Cn1c(CN2CCC2)cc2cc3c(cc21)CCCc1c-3[nH]c(=O)c(C(=O)O)c1O [Cpd 24, 10-(azetidin-1-ylmethyl)-4-hydroxy-9-methyl-2-oxo-1,2,5,6,7,9-hexahydropyrido[3′,2′:6,7]cyclohepta[1,2-f]indole-3-carboxylic acid hydrochloride]	< 1	3.5 to 12.5	< 1	–	–	–	–

— US20150038438A1, “ANTIBACTERIAL COMPOUNDS AND METHODS FOR USE” (PTC THERAPEUTICS, INC., priority 2011, published 2015)
